Test results published in US11679108B2, “Aromatic heterocyclic compound, and pharmaceutical composition and use thereof” (GUANGZHOU HENOVCOM BIOSCIENCE CO., LTD., priority 2018, dated 2023).

Key:
ATX = ATX (Homo sapiens, UniProt Q13822); test: Analysis in vitro: LPC was used as substrate for screening enzyme activity (Amplex Red fluorescence); format: biochemical; details: inhibitory activity against ATX, with LPC as substrate
Procedure, shortened: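 ATX lysoPLD activity was measured by coupled detection: LPC hydrolysis releases choline, which choline oxidase/HRP convert to an Amplex Red fluorescent signal (ex 530/em 590 nm). The enzyme mix (2 ng/μl ATX, 2 U/ml HRP, 0.2 U/ml choline oxidase) was combined with the substrate mix ([…], 400 μM Amplex Red) and 10-point threefold compound dilutions for 30 min. IC50 was derived from the inhibition ratio.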

ATX in human plasma = biological target: T1, ATX in human plasma (Homo sapiens, UniProt Q13822); test: Analysis in vitro: detection of LPA in human plasma for screening activity (LPA 18:2 by LC/MS/MS); format: biochemical; details: incubated 2 hours at 37° C., LPA 18:2 detected by LC/MS/MS
T1 construct: blank plasma was derived from at least 6 individual people; from tissue; host or cells: human plasma (pooled from at least 6 individuals)
Procedure, shortened: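 Compounds at 0 to 10 μM were incubated for 2 h at 37° C. under 5% CO2 in pooled human plasma (≥6 donors), with endogenous LPC acting as substrate. LPA 18:2 was quantified by LC/MS/MS with an LPA 17:0 internal standard after methanol precipitation. IC50 values came from residual activity relative to compound-free plasma across 8 points of a 3-fold dilution series.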

Row | Structure (SMILES) | IC50 (ATX) [nM] | IC50 (ATX in human plasma) [nM]
1 | CCc1nc2sc(N3CC[C@@H](N(C)CC(=O)N4CC(O)C4)C3)nn2c1N(C)c1nc(-c2ccc(F)cc2)c(C#N)s1 [Example 21, (R)-2-{[6-ethyl-2-(3-((2-(3-hydroxyazetidin-1-yl)-2-oxoethyl)(methyl)amino)pyrrolidin-1-yl)imidazo[2,1-b][1,3,4]thiadiazol-5-yl](methyl)amino}-4-(4-fluorophenyl)thiazole-5-carbonitrile] | 0.01 to 100 | 0.01 to 100
2 | CCc1nc2sc(N3CCC(N(C)CC(=O)N4CC(O)C4)C3)nn2c1N(C)c1nc(-c2ccc(F)cc2)c(C#N)s1 (stereo not shown) [Example 11] | 0.01 to 100 | 0.01 to 100
3 | CCc1nc2sc(N3CCCC(N(C)C(N)=O)C3)nn2c1N(C)c1nc(-c2ccc(F)cc2)c(C#N)s1 (stereo not shown) [Example 15, 1-{1-[5-((5-cyano-4-(4-fluorophenyl)thiazol-2-yl)(methyl)amino)-6-ethylimidazo[2,1-b][1,3,4]thiadiazol-2-yl]piperidin-3-yl}-1-methylurea] | 0.01 to 100 | 0.01 to 100
4 | CCc1nc2sc(N3CCN(CC(=O)N4CC(O)C4)CC3)nn2c1N(C)c1nc(-c2ccc(F)cc2)c(C#N)s1 [Example 2, 2-{[6-ethyl-2-(4-(2-(3-hydroxyazetidin-1-yl)-2-oxoethyl)piperazin-1-yl)imidazo[2,1-b][1,3,4]thiadiazol-5-yl](methyl)amino}-4-(4-fluorophenyl)thiazole-5-carbonitrile] | 100 to 500 | 100 to 500
5 | CCc1nc2sc(N3CC[C@H](N(C)CC(=O)N4CC(C#N)C4)C3)nn2c1N(C)c1nc(-c2ccc(F)cc2)c(C#N)s1 [Example 47, (S)-2-{[2-(3-((2-(3-cyanoazetidin-1-yl)-2-oxoethyl)(methyl)amino)pyrrolidin-1-yl)-6-ethylimidazo[2,1-b][1,3,4]thiadiazol-5-yl](methyl)amino}-4-(4-fluorophenyl)-thiazole-5-carbonitrile] | 0.01 to 100 | 0.01 to 100
